# Experimental data taken from patent US10697020B2, “MicroRNA-129 as a biomarker for colorectal cancer” (THE RESEARCH FOUNDATION FOR THE STATE UNIVERSITY OF NEW YORK, priority 2013, dated 2020).
# Where two headings read alike, the source gives them in different places.
# What was measured:
# [1] = test system: BCL2; test: Western immunoblot analysis of BCL2 protein after miRNA/siRNA transfection; assay type: cell-based, human; settings: HCT116, RKO and SW480 cells; 100 nM transfected; 48 h; vs negative control miRNA
# Description: (§1) HCT116, RKO and SW480 cells were plated in 6-well plates at 2×10^5, 1×10^5 and 1×10^5 per well, respectively. Twenty-four hours after plating, 100 nM of miR-129 precursor (Ambion, Carlsbad, Calif., USA) or siRNA against BCL2 (Dharmacon, Lafayette, Colo., USA) were transfected to the cells with oligofectamine (Invitrogen, Carlsbad, Calif., USA) in accordance with the manufacturer's protocol. Negative miRNA (Ambion) was also transfected as a negative control.
# (§2) Forty-eight hours after transfection, cells were lysed with RIPA buffer (Sigma-Aldrich), and Western immunoblotting was performed using standard procedures. The primary antibodies used for the analysis were mouse anti-human BCL2 antibody (1:200; Thermo Fisher Scientific, Fremont, Calif., USA), rabbit anti-human cleaved caspase-3 antibody (1:200; Cell Signaling Technology, Beverly, Mass., USA), rabbit anti-human cleaved caspase-9 antibody (1:200; Cell Signaling Technology), mouse anti-human E2F3 antibody (1:5000; Millipore, Billerica, Mass., USA), mouse anti-human TS antibody (1:400; Millipore), mouse anti-human GAPDH antibody (1:1000, Santa Cruz Biotechnology, Santa Cruz, Calif., USA) or mouse anti-human α-tubulin antibody (1:1000; Millipore). […] HRP activity was detected with SuperSignal West Pico Chemiluminescent Substrate (Thermo Fisher Scientific) and visualized in an UVP Bioimaging system.
# [2] = test system: 3′-UTR of BCL2 mRNA; test: Luciferase assay, pMIR-REPORT-3′-UTR-BCL2 in HCT116 cells; assay type: cell-based, human; settings: 10 nM, 24 h, normalized to negative miRNA
# Description: The predicted miR-129 binding sequence (wild-type, underlined) or a mismatch sequence (mutant, italic underlined) in the 3′UTR of Bcl2 mRNA were synthesized with SpeI and PmeI restriction site overhangs (Invitrogen). After annealing, double strand oligonucleotides were inserted into the pMIR-REPORT plasmid (Invitrogen), downstream of the firefly luciferase reporter. The sequences of these synthesized oligonucleotides are:
# Twenty-four hours before transfection, 1.5×10^4 cells were plated in 96-well plate. 10 nM of miR-129 or negative miRNA was transfected into cells together with 100 ng of pMIR-REPORT-3′-UTR-BCL2 (wild-type or mutant) and 1 ng of Renilla luciferase plasmid pRL-SV40 (Promega, Madison, Wis., USA) by DharmaFect Duo (Dharmacon, Lafayette, Colo., USA) following the manufacturer's protocol. Luciferase assay was performed 24 hour after transfection by dual-luciferase reporter assay system (Promega). For each sample, firefly luciferase activity was normalized to Renilla luciferase activity and the inhibition by miR-129 was normalized to the control miRNA.
# [3] = test system: 84 genes involved in cell death pathways; test: Cell Death PathwayFinder PCR Array (real time qRT-PCR); assay type: cell-based, human; settings: miR-129 transfected vs negative miRNA transfected cells
# Source text: RNAs were extracted from cells transfected with either precursor miR-129 or negative miRNA using TRIzol reagent (Invitrogen) in accordance with the manufacturer's protocol. RNAs were transcribed to first-strand cDNA using the RT^2 First Strand Kit (SABiosciences, Qiagen, Venlo, Netherlands). Next, the cDNA is mixed with RT^2 SYBR Green Mastermix (SABiosciences), and this mixture is aliquoted into the wells of the Cell Death PathwayFinder PCR Array (PAHS-212Z). Applied Biosytems 7500 Real-Time PCR machine was used for qRT-PCR, and relative expression values were determined using the ΔΔCT method.
# [4] = test system: HCT116, RKO and SW480 cells; test: Apoptosis assay (annexin V / propidium iodide, flow cytometry); assay type: cell-based, human; settings: all colorectal cancer cell lines tested (HCT116, RKO, SW480); 48 h after transfection; vs negative miRNA
# Description: as §1
# Forty-eight hours after transfection, cells were harvested, stained with propidium iodide and anti annexin-V antibody (Annexin V-FITC Apoptosis Detection kit, BD Biosciences, San Jose, Calif., USA) following the manufacturer's protocol, and stained cells were detected by flow cytometry. The experiments for the apoptosis assay were performed at least three times.
# [5] = test system: cleaved caspase-3 and cleaved caspase-9; test: Western immunoblot analysis of cleaved caspases in HCT116 cells; assay type: cell-based, human; settings: HCT116 cells with ectopic expression of miR-129
# Description: as §1, §2
# [6] = test system: HCT116 cells; test: Cell proliferation assay (WST-1), HCT116; assay type: cell-based, human; settings: day 5
# Description: as §1
# Twenty-four hours after transfection, cells were seeded in 96-well plates at a density of 2000 cells per well. The cell proliferation assay was performed on days 1, 3 and 5 by incubating 10 μl WST-1 (Roche Applied Science, Mannheim, Germany) in the culture medium for 1 h and reading the absorbance at 450 and 630 nm. The cell proliferation rate was calculated by […]. Experiments for the cell proliferation assay were performed at least three times.
# [7] = test system: RKO cells; test: Cell cycle analysis (flow cytometry), RKO; assay type: cell-based, human; settings: 36 h after transfection
# Description: as §1
# Thirty-six hours after transfection, cells were harvested and resuspended at 0.5 to 1×10^6 cells/m in modified Krishan buffer supplemented with 0.02 mg/ml RNase H (Invitrogen) and 0.05 mg/ml propidium iodide (Sigma-Aldrich, St. Louis, Mo., USA) (See, Krishan A. The Journal of Cell Biology. 1975; 66(1):188-93). Stained cells were detected by flow cytometry and results were analyzed with Modfit LT™ software. The experiments for cell cycle analysis were performed at least three times.
# [8] = test system: HCT116 cells; test: 5-FU treatment and cytotoxicity assay (WST-1); assay type: cell-based; settings: 72 hours, read-out: IC50 (50% growth inhibition, WST-1)
# Description: Twenty-four hours after transfection, HCT116 cells were plated in 96-well plates at 2×10^3 cells per well in triplicates in 100 μl of medium. After 24 hours, fresh medium containing 5-FU alone (ranged from 1 to 4 μM) or miR-129 precursor alone (ranged from 10 nM to 40 nM) or 5-FU and miR-129 together (at a constant ratio 1:10, with increasing concentrations of both compounds) were added, and cells were cultured for an additional 72 hours. Cell viability was measured using the WST-1 assay, and concentration-dependent curves were generated based on the cell viability. The combination index was calculated by CompuSyn software. See, Chou T C et al. (2007).
# [9] = test system: TS; test: Western immunoblot analysis of TS protein in HCT116 cells; assay type: cell-based, human; settings: HCT116 cells with ectopic expression of miR-129
# Description: as §1, §2
substance,measurement,setting,value
miR-129: nucleic acid having a sequence of CUUUUUGCGGUCUGGGCUUGC (SEQ ID NO. 1); miR-129 precursor from Ambion used (chemistry not given here; listed as Homo sapiens),BCL2 protein expression,[1],reduced the BCL2 protein expression
same,firefly luciferase activity of pMIR-REPORT-3′-UTR-BCL2 (wild-type),[2],significantly inhibited the luciferase activity
same,luciferase activity of reporter with 3′-UTR of BCL2 with three point mutations in the miR-129 binding site (mutant),[2],did not inhibit the luciferase activity
same,Fold change (miR-129/neg),[3]; gene APAF1,2.44
same,Fold change (miR-129/neg),[3]; gene BAX,27.77
same,Fold change (miR-129/neg),[3]; gene BCL2A1,0.04
same,Fold change (miR-129/neg),[3]; gene BIRC3,0.28
same,Fold change (miR-129/neg),[3]; gene CASP2,7.68
same,Fold change (miR-129/neg),[3]; gene CASP3,1.27
same,Fold change (miR-129/neg),[3]; gene CASP7,4.75
same,Fold change (miR-129/neg),[3]; gene CASP9,2.53
same,Fold change (miR-129/neg),[3]; gene MCL1,3.81
same,Fold change (miR-129/neg),[3]; gene PARP2,0.47
same,apoptosis (proportion of cells annexin V positive and propidium iodide negative),[4],increased apoptosis significantly
same,protein levels of cleaved caspase-9 and cleaved caspase-3,[5],elevated the protein levels
same,cell proliferation reduced compared to negative controls,[6],41.2%
same,cell cycle arrest (G1/S and G2/S ratios),[7],at G1 checkpoint
same,IC50,[8]; miR-129 alone,11.2 nM
same,IC50,[8]; miR-129 when combined with 5-FU (fixed ratio 1:10),6.3 nM
same,TS protein expression,[9],suppressed the protein expression of TS
